Source: patent US11572369B2, “Bicyclic pyridine compositions and methods of using the same for cancer therapy” (UNIVERSITY OF SOUTH CAROLINA, priority 2019, dated 2023)

Experiments:
Assay in all cases: KINOMEscan
Type in all cases: binding
Details in all cases: 2000 nM
[1] = biological target: T1, TNK1 (Homo sapiens, UniProt Q13470)
T1 construct: DNA label (qPCR read-out); purchased KINOMEscan (DiscoveRx) ScanMAX panel

[2] = biological target: T2, CDC2L1 (Homo sapiens, UniProt P21127)
T2 construct: DNA label (qPCR read-out); purchased KINOMEscan (ScanMAX panel service)
T2 sequence (P21127 whole entry): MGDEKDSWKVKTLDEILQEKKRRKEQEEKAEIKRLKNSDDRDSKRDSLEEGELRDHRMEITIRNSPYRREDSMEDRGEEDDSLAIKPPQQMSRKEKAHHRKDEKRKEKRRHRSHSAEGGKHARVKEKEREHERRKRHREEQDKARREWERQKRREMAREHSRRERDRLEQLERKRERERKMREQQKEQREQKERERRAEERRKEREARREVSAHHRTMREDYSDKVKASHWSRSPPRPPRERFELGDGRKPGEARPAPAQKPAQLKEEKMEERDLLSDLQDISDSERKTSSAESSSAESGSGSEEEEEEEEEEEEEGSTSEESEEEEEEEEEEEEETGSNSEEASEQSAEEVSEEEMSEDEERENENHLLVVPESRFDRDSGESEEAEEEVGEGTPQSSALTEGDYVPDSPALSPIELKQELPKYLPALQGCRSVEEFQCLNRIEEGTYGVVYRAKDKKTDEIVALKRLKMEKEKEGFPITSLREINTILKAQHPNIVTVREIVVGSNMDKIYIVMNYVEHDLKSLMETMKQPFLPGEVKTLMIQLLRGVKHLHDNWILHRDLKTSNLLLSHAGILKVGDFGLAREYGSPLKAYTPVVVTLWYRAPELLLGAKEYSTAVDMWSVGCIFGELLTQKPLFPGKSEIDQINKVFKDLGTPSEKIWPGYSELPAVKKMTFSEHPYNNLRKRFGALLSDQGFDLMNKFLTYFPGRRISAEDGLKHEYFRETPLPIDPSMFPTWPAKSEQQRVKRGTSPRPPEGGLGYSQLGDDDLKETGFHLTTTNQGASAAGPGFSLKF

[3] = biological target: T3, VEGFR2 (Homo sapiens, UniProt P35968)
T3 construct: DNA label (for qPCR read-out); purchased DiscoveRx (KINOMEscan scanMAX panel)

[4] = biological target: T4, CAMKK2 (Homo sapiens, UniProt Q96RR4)
T4 construct: DNA label (qPCR read-out); purchased KINOMEscan (ScanMAX panel service)

[5] = biological target: T5, CDK11 (CDK19) (Homo sapiens, UniProt Q9BWU1)
T5 construct: purchased DiscoverX (KINOMEscan service)
T5 sequence (Q9BWU1 whole entry): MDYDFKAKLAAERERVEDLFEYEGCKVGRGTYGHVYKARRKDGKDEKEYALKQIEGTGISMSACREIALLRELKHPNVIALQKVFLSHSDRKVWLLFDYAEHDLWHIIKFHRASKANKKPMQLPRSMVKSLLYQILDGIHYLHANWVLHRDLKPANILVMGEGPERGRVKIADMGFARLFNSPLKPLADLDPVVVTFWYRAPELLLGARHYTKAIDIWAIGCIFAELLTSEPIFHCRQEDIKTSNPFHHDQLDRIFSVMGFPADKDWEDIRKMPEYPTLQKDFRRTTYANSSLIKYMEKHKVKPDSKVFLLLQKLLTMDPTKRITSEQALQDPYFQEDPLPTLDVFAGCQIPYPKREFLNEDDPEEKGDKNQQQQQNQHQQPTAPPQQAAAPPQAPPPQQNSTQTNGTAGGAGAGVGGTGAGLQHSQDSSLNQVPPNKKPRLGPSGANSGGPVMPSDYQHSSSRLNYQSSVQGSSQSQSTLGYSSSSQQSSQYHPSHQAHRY

[6] = biological target: T6, RSK4(Kin.Dom.2-C-terminal) (Homo sapiens, UniProt Q9UK32)
T6 construct: RSK4(Kin.Dom.2); purchased DiscoveRx (KINOMEscan scanMAX panel)
T6 sequence (Q9UK32 426-683 limits assumed): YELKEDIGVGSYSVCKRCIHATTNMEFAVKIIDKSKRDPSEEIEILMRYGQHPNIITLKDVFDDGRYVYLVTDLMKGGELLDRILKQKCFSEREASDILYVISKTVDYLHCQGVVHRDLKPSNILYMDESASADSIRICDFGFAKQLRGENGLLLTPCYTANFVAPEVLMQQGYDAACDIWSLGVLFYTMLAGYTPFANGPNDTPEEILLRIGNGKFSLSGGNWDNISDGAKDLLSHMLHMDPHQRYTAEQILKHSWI

[7] = biological target: T7, MLK1 (Homo sapiens, UniProt P80192)
T7 construct: DNA label (qPCR read-out); purchased KINOMEscan scanMAX panel (DiscoveRx)

[8] = biological target: T8, JNK3 (Homo sapiens, UniProt P53779)
T8 construct: DNA label (for qPCR read-out); purchased DiscoveRx (KINOMEscan scanMAX panel)

[9] = biological target: T9, EPHB4 (Homo sapiens, UniProt P54760)
T9 construct: purchased DiscoveRx (KINOMEscan scanMAX panel)

[10] = biological target: T10, ABL2 (Homo sapiens, UniProt P42684)
T10 construct: purchased DiscoveRx (KINOMEscan scanMAX panel, service)

[11] = biological target: T11, QSK (Homo sapiens, UniProt Q9Y2K2)
T11 construct: purchased DiscoveRx (KINOMEscan scanMAX panel)

[12] = biological target: T12, RPS6KA4(Kin.Dom.2-C-terminal) (Homo sapiens, UniProt O75676)
T12 construct: Kin.Dom.2; DNA label (qPCR read-out); purchased DiscoveRx (KINOMEscan ScanMAX panel)
T12 sequence (O75676 411-674 limits assumed): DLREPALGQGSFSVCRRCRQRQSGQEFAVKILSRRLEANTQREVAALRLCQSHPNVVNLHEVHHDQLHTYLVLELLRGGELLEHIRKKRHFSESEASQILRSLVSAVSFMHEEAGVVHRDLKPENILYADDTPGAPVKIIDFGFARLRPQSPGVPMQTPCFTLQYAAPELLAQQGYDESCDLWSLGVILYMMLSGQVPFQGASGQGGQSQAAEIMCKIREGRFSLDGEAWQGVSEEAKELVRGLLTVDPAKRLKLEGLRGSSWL

[13] = biological target: T13, PLK4 (Homo sapiens, UniProt O00444)
T13 construct: purchased DiscoveRx (KINOMEscan scanMAX panel)
T13 sequence (O00444 whole entry): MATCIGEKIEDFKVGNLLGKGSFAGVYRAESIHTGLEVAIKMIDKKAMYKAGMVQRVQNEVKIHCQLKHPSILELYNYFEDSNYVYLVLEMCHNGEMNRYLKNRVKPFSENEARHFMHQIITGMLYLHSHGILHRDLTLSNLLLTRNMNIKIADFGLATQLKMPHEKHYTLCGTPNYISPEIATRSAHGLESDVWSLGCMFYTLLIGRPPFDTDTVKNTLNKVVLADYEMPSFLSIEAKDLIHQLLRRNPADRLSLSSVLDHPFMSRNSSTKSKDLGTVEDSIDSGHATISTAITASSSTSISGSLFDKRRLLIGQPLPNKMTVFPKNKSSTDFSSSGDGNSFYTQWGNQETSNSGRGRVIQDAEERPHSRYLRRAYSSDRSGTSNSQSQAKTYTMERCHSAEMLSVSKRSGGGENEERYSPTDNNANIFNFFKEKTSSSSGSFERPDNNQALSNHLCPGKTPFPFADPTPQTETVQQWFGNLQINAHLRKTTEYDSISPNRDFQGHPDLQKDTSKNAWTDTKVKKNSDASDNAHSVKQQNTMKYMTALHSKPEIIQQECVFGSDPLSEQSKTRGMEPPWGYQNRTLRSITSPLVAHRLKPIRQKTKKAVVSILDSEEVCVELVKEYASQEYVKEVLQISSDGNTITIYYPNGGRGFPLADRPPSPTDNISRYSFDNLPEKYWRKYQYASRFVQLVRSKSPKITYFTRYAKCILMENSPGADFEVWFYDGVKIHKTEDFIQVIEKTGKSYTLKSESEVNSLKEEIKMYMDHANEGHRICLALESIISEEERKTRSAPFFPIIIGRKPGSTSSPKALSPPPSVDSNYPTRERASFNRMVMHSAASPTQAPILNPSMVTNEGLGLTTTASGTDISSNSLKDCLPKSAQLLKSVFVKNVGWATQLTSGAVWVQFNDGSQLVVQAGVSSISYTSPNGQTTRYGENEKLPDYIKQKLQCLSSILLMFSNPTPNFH

[14] = biological target: T14, PLK2 (Homo sapiens, UniProt Q9NYY3)
T14 construct: purchased DiscoveRx (KINOMEscan scanMAX panel)

[15] = biological target: T15, ALK(C1156Y) (Homo sapiens, UniProt Q9UM73, C1156Y)
T15 construct: DNA label (qPCR read-out); purchased KINOMEscan scanMAX panel (DiscoveRx)

[16] = biological target: T16, SIK (Homo sapiens, UniProt P57059)
T16 construct: purchased KINOMEscan (DiscoveRx)

[17] = biological target: T17, PAK2 (Homo sapiens, UniProt Q13177)
T17 construct: purchased DiscoverX (KINOMEscan service)

[18] = biological target: T18, ERK5 (Homo sapiens, UniProt Q13164)
T18 construct: DNA label (qPCR read-out); purchased DiscoveRx (KINOMEscan ScanMAX panel)
T18 sequence (Q13164 whole entry): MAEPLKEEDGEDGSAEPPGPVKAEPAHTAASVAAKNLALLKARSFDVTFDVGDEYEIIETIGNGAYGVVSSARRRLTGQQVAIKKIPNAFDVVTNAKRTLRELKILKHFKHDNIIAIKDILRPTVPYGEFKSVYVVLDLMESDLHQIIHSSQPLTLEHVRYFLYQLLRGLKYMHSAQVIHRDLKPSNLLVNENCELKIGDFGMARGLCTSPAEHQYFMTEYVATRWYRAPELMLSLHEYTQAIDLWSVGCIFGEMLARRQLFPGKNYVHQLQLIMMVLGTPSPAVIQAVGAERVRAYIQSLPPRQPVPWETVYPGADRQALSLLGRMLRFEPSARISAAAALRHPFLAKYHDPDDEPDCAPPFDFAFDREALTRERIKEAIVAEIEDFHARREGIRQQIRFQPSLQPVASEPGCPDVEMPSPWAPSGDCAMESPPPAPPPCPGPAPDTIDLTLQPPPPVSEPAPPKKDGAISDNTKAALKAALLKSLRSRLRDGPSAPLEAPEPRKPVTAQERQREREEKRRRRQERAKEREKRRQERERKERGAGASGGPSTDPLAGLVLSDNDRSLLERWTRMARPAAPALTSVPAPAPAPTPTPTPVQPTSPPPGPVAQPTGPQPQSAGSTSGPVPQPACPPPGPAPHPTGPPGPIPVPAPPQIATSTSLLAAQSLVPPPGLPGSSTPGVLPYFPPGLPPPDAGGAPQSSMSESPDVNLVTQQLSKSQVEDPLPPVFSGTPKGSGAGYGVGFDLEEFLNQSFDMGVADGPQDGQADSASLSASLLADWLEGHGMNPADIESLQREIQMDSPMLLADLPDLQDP

[19] = biological target: T19, RIPK5 (Homo sapiens, UniProt Q6XUX3)
T19 construct: DNA label (qPCR read-out); purchased DiscoveRx (KINOMEscan ScanMAX panel)

[20] = biological target: T20, SBK1 (Homo sapiens, UniProt Q52WX2)
T20 construct: purchased DiscoveRx (KINOMEscan scanMAX panel)

[21] = biological target: T21, EPHB1 (Homo sapiens, UniProt P54762)
T21 construct: purchased DiscoveRx (KINOMEscan scanMAX panel)
T21 sequence (P54762 18-984): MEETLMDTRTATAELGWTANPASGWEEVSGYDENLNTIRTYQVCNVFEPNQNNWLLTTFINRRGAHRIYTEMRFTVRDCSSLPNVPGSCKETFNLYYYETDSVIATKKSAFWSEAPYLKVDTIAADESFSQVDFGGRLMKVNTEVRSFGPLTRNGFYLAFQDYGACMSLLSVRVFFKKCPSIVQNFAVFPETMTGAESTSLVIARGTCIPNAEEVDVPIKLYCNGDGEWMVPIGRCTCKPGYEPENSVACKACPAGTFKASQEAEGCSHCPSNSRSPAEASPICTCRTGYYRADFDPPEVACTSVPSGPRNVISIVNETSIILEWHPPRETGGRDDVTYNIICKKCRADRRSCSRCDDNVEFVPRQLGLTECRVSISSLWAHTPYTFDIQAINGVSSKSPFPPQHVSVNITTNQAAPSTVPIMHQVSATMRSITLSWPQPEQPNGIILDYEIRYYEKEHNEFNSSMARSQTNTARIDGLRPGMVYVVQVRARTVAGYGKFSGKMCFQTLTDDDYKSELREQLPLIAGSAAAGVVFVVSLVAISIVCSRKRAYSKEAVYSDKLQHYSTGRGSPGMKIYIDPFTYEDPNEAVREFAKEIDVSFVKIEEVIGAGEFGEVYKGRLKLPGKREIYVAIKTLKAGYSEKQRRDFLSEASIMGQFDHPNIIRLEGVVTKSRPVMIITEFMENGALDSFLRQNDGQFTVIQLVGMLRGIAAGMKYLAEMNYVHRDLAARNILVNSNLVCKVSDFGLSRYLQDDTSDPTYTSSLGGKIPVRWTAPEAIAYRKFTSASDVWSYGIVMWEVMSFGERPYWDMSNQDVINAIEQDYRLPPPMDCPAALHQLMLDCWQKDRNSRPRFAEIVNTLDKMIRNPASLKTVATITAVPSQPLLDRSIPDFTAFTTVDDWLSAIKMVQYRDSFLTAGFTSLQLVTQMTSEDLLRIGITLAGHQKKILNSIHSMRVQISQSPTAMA

[22] = biological target: T22, WNK2 (Homo sapiens, UniProt Q9Y3S1)
T22 construct: purchased KINOMEscan (DiscoveRx) panel service

[23] = biological target: ABL1-phosphorylated (Homo sapiens, UniProt P00519)
[24] = biological target: T23, JAK3(JH1domain-catalytic) (Homo sapiens, UniProt P52333)
T23 construct: JAK3(JH1domain-catalytic); DNA label (for qPCR read-out); purchased DiscoveRx (KINOMEscan scanMAX panel)

[25] = biological target: T24, CAMK1D (Homo sapiens, UniProt Q8IU85)
T24 construct: DNA label (qPCR read-out); purchased KINOMEscan (ScanMAX panel service)

[26] = biological target: T25, TNIK (Homo sapiens, UniProt Q9UKE5)
T25 construct: DNA label (qPCR read-out); purchased KINOMEscan (DiscoveRx) ScanMAX panel

[27] = biological target: T26, YANK3 (Homo sapiens, UniProt Q86UX6)
T26 construct: purchased KINOMEscan (DiscoveRx) panel service

[28] = biological target: T27, PIM3 (Homo sapiens, UniProt Q86V86)
T27 construct: DNA label (qPCR read-out); purchased KINOMEscan (DiscoveRx) panel

[29] = biological target: T28, CDK9 (Homo sapiens, UniProt P50750)
T28 construct: purchased DiscoverX (KINOMEscan service)

[30] = biological target: T29, EIF2AK1 (Homo sapiens, UniProt Q9BQI3)
T29 construct: purchased DiscoveRx (KINOMEscan scanMAX panel)

[31] = biological target: T30, SIK2 (Homo sapiens, UniProt Q9H0K1)
T30 construct: purchased KINOMEscan (DiscoveRx)

[32] = biological target: T31, EGFR(L858R) (Homo sapiens, UniProt P00533, L858R)
T31 construct: purchased DiscoveRx (KINOMEscan scanMAX panel)

[33] = biological target: T32, PYK2 (Homo sapiens, UniProt Q14289)
T32 construct: purchased DiscoveRx (KINOMEscan scanMAX panel)

[34] = biological target: T33, PIP5K1A (Homo sapiens, UniProt Q99755)
T33 construct: DNA label (qPCR read-out); purchased KINOMEscan (DiscoveRx) panel

[35] = biological target: T34, CLK3 (Homo sapiens, UniProt P49761)
T34 construct: DNA label (for qPCR read-out); purchased DiscoveRx (KINOMEscan scanMAX service)

SMILES | % Ctrl [1] [% Ctrl] | % Ctrl [2] [% Ctrl] | % Ctrl [3] [% Ctrl] | % Ctrl [4] [% Ctrl] | % Ctrl [5] [% Ctrl] | % Ctrl [6] [% Ctrl] | % Ctrl [7] [% Ctrl] | % Ctrl [8] [% Ctrl] | % Ctrl [9] [% Ctrl] | % Ctrl [10] [% Ctrl] | % Ctrl [11] [% Ctrl] | % Ctrl [12] [% Ctrl] | % Ctrl [13] [% Ctrl] | % Ctrl [14] [% Ctrl] | % Ctrl [15] [% Ctrl] | % Ctrl [16] [% Ctrl] | % Ctrl [17] [% Ctrl] | % Ctrl [18] [% Ctrl] | % Ctrl [19] [% Ctrl] | % Ctrl [20] [% Ctrl] | further results
CN(C)C(=O)c1ccc(N2CCCN(c3ccnc4sc(C(N)=O)c(N)c34)CC2)cc1 [15u, 3-amino-4-(4-(4-(dimethylcarbamoyl)phenyl)-1,4-diazepan-1-yl)thieno[2,3-b]pyridine-2-carboxamide] | 100 | 63 | 67 | 100 | 13 | 94 | 95 | 91 | 100 | 85 | 89 | 100 | 95 | 100 | 100 | 84 | 91 | 59 | 100 | 100 | % Ctrl [21]: 88 % Ctrl; % Ctrl [22]: 96 % Ctrl; % Ctrl [23]: 90 % Ctrl; % Ctrl [24]: 83 % Ctrl; % Ctrl [25]: 87 % Ctrl; % Ctrl [26]: 100 % Ctrl; % Ctrl [27]: 81 % Ctrl; % Ctrl [28]: 89 % Ctrl; % Ctrl [29]: 66 % Ctrl; % Ctrl [30]: 93 % Ctrl; % Ctrl [31]: 96 % Ctrl; % Ctrl [32]: 99 % Ctrl; % Ctrl [33]: 97 % Ctrl; % Ctrl [34]: 100 % Ctrl; % Ctrl [35]: 100 % Ctrl
[2H]C([2H])([2H])N(C(=O)c1ccc(N2CCCN(c3ccnc4sc(C(N)=O)c(N)c34)CC2)cc1)C([2H])([2H])[2H] [15u_D6, 3-amino-4-(4-(4-(bis(methyl-d3)carbamoyl)phenyl)-1,4-diazepan-1-yl)thieno[2,3-b]pyridine-2-carboxamide] | 100 | 100 | 84 | 87 | 0 | 79 | 92 | 44 | 100 | 91 | 97 | 74 | 92 | 86 | 78 | 79 | 94 | 98 | 72 | 83 | % Ctrl [21]: 88 % Ctrl; % Ctrl [22]: 94 % Ctrl; % Ctrl [23]: 77 % Ctrl; % Ctrl [24]: 80 % Ctrl; % Ctrl [25]: 93 % Ctrl; % Ctrl [26]: 91 % Ctrl; % Ctrl [27]: 97 % Ctrl; % Ctrl [28]: 98 % Ctrl; % Ctrl [29]: 100 % Ctrl; % Ctrl [30]: 78 % Ctrl; % Ctrl [31]: 100 % Ctrl; % Ctrl [32]: 93 % Ctrl; % Ctrl [33]: 84 % Ctrl; % Ctrl [34]: 100 % Ctrl; % Ctrl [35]: 95 % Ctrl
